Article PMC8070582, “Therapeutic Efficacy of a Novel Acetylated Tetrapeptide in Animal Models of Age-Related Macular Degeneration” (International Journal of Molecular Sciences, 2021)
Several values for one entry are separate records, joined by “and”; a condition that tells them apart may be missing. Equal entries are not always repeated. Entries after “also recorded” stand apart in the source; their conditions may differ.

What was measured:
[1] = tested on: corneal neovascularization; set-up: method as in PMID 24240485; conditions: administered on day 7 after suture placement; 1 week post-treatment; cited from earlier work
[2] = cited from earlier work
[3] = tested on: choroidal neovascularization (CNV); experiment: Laser-induced CNV mouse model, treatment on the same day as laser irradiation (CNV area); format: in vivo; conditions: day 7, vs vehicle (p < 0.001)
Protocol: Six-week-old male C57BL/6J mice were purchased from Central Laboratory Animal and then maintained in a specific pathogen free facility in Seoul National University. After deep anesthesia with zolazepam plus tiletamine (3.75 mg/kg, Virbac, Seoul, Korea) and xylazine (7.5 mg/kg, Bayer AG, Leverkusen, Germany), mice were treated with a customized laser indirect ophthalmoscope system (ILOODA) to break Bruch’s membrane (300 μm spot size, 300 mW power, and 100 ms exposure time) as described previously. After the laser irradiation, 10 μL PBS (vehicle), 1 ng of each peptide (RLYE, R(D)LYE and Ac-RLYE), or 145 ng of aflibercept was administered into the vitreous cavity of mice (six per each treatment group) at the same day as laser irradiation. At 7 days after the laser irradiation, the RPE-choroid-scleral complexes were prepared from the enucleated eyes. After immunostaining of the RPE-choroid-scleral complexes with isolectin B4 conjugated with Alexa Fluor-594 (1:100; cat. No. I21413, Invitrogen, Waltham, MA, USA), the CNV area was quantitatively analyzed by the measurement of the area using the ImageJ software. All animal experiments were carried out according to the guidelines of the Ethics Committee for Protection and Use of Experimental Animals of Seoul National University.

retinal vascular leakage = experiment: Streptozotocin-induced diabetic mouse model, retinal vascular leakage; format: in vivo; conditions: 1 µL of 1.5 mM intravitreal; 24 h after treatment; vs vehicle; RLYE 0.01 < p < 0.05, Ac-RLYE p < 0.01
Protocol: To prepare a streptozotocin-induced diabetic mouse model, a freshly prepared STZ solution (100 mM) in a citrate buffer (100 mM, pH 4.5) was injected intraperitoneally at 150 mg/kg into the mice, and to prevent hypoglycemic shock, 10% sucrose was sufficiently provided. After two days, blood glucose was measured using an Accu-Chek Performa blood glucose meter (Roche Diagnostics GmbH, Mannheim, Germany), and when non-fasting blood glucose within 1 to 2 weeks was maintained at 300 mg/dl or more, the mice were used as diabetic animal models. […]. Here, the same amount of PBS was injected into the control group. The peptide was injected, and after 24 h, 1 mL (1.25 mg) of FITC-dextran (250 kDa) was injected into the left ventricle of each mouse to allow circulation for approximately 5 min. The mice were euthanized by cervical dislocation, and the eyeballs were extracted and fixed in 4% paraformaldehyde at room temperature for 1 h. The retina was isolated from the fixed eyeball to prepare a retinal flat mount, and vascular leakage was observed under a confocal microscope. Meanwhile, the fluorescence of FITC-dextran leaked from retinal vessels was measured using Fluoview software.

[4] = tested on: choroidal neovascularization (CNV); experiment: Therapeutic laser-induced CNV mouse model, treatment 10 days after laser irradiation (CNV area); format: in vivo; conditions: 1 µL of 1.5 mM intravitreal 10 days after laser irradiation; day 4 after treatment
Protocol: […]. Here, the same amount of saline was injected into the control group. After 4 days (14 days after the laser irradiation), an experiment for analyzing a therapeutic effect was carried out by extracting the eyeballs of the mice. The extracted eyeballs were fixed in 4% paraformaldehyde for 12 h, and embedded in paraffin. Sections with a thickness of 4 μm were prepared from paraffin tissue, and subjected to H&E staining. Afterward, an image of a section with the largest choroidal neovascular membrane area was taken from each subject, and the area of the choroidal neovascular membrane was quantitatively analyzed using ImageJ program (NIH, Bethesda, Rockville, MD, USA). In the saline-injected control group, the average of the choroidal neovascular areas was represented as 100%, and a therapeutic effect of each treatment group was analyzed.

[5] = cited from earlier work; remark: listed apart in the source
[6] = tested on: choroidal neovascularization (CNV); experiment: Rabbit 4-week laser-induced CNV model (retinal fluorescence intensity); format: in vivo; conditions: 2000 µg/eye intravitreal; only until day 14 after CNV induction
Text: From the day of laser irradiation to 7, 14, 21, and 28 days after laser induced CNV, the rabbits were instilled with a 1% Mydriacyl eye drop and then anesthetized.

[7] = tested on: choroidal neovascularization (CNV); experiment: Rabbit 7-week CNV model, treatment 1 week after laser irradiation; format: in vivo
Protocol: From the day of laser irradiation to 7, 14, 21, 28, 35, 42, and 49 days after laser induced CNV, the rabbits were instilled with a 1% Mydriacyl eye drop and then anesthetized.
Fundus photography of retinal angiography was performed at the 42nd day from test substance treatment. Additionally, the eyes were then removed and fixed in 10% formalin solution for 24 h. The cornea, lens, and retina were removed. After washing with PBS, the […] and choroid complex (RPE-choroid complex) just remained from fixed eyes. The CNV area was stained with rhodamine conjugated isolectin B4 (IB4, Sigma-Aldrich, St. Louis, MO, USA) for 24 h at 4 °C. After staining, they were washed in PBS, flat-mounted on a glass slide, and then observed with a fluorescence microscope equipped with a digital camera and photographed. The CNV area was measured by ImageJ software.

[8] = tested on: VEGF-induced angiogenesis; set-up: method as in PMID 10747021; conditions: slow-releasing hydrogel implants in corneal stroma; assessed on day 12; cited from earlier work

## ranibizumab: an anti-VEGF therapy (anti-VEGF antibody), positive control
[1]
  degree of reduction of the CNV area compared with vehicle: 53%–60%
[2]
  t1/2 (ocular): 52.4 h
  volume of distribution: 2.7 mL

## Arg-Leu-Tyr-Glu (RLYE; printed: Arg-Leu-Tyr-Glu)
[3]; 1 ng/1 µL/eye intravitreal on day of laser irradiation
  CNV area: significantly reduced
Retinal vascular leakage
  retinal vascular leakage (FITC-dextran): effectively inhibited
[4]
  degree of CNV area reduction compared with vehicle: 55%
  occurrence of CNV (CNV area): significantly reduced the CNV area; also recorded: effectively reduced
[5]
  serum half-life: 1.2 h

## bevacizumab: anti-VEGF antibody
[1]
  degree of reduction of the CNV area compared with vehicle: 46%–60%

## aflibercept: fusion protein of ligand-binding elements of VEGFR-1 and VEGFR-2 fused to the Fc portion of IgG
[3]; 145 ng/1 µL/eye intravitreal on day of laser irradiation
  CNV area: significantly reduced
[6]
  retinal fluorescence intensity vs vehicle group: significantly reduced
[7]; 2000 µg/eye intravitreal on day 7 after laser, days 7, 14, 21, 28, 35 and 42 after administration
  retinal fluorescence intensity vs vehicle control: significantly lower
[7]; aflibercept 2000 µg/eye, day 42 after drug administration
  CNV lesions (CNV area) compared with vehicle control, reduced to: 38.9% and 36%
[2]
  t1/2 (ocular): 94.1 h
  volume of distribution: 1.4 mL

## ATWLPPR
[8]
  VEGF-induced angiogenesis: abolish VEGF-induced angiogenesis
